Experimental findings from EP0290169A2, “Diamineplatinum complexes with phosphonocarboxylate and substituted phosphonocarboxylate ligands as antitumor agents” (ENGELHARD CORPORATION, priority 1987, dated 1988) are described below.

The subject of one assay is Sarcoma 180 ascites. Nature of the assay: S180a screening (Sarcoma 180 ascites tumor model), increase in life span. The format is in vivo, CFW mice. To be noted: for Surv.: survivors on day of evaluation. Here is the method:
CFW mice, averaging 20 g, are innoculated on day zero with 0.2 mL of a freshly prepared saline suspension (0.15 M NaCI) containing 1 × 10^7 tumor cells/mL, or a total of 2 x 10^6 cells. On day I, the mice are injected with the test compound in the selected medium (usually water). Six mice are used per test dose, with six doses normally being run.
Also, on day one, two types of controls (6 mice/set are employed: (1) Normal (1 set): 0.5 mL of the solvent medium used for the test compound, and (2) Positive control (1 set): cis-[Pt(NH3)2Cl2] in saline at 8 mg/kg.
The effectiveness of a compound is measured in terms of the increase in life span (ILS) of the test animals relative to the controls calculated from the day of tumor inoculation (day zero). The day of evaluation is arbitrarily taken as that day corresponding to twice the mean life-span of the normal controls. This sets a practical upper limit of 100% on the ILS attainable. For calculation purposes, survivors on the day of evaluation are considered to have died on that day. The % ILS is formulated as: [formula]
ILS values above 50% represent activity. The positive controls must have an ILS of ≧ 50% for the test to be valid.

In a further assay the test system is L1210 leukemia. Nature of the assay: L1210 screening (L1210 leukemia tumor model), increase in life span. The format is in vivo, Female CDF1 mice. To be noted: for Surv.: survivors. The method, then: Female CDF1 mice (16-22 g) are injected with a suspension of 1 x 10^6 tumor cells in 0.5 mL of 0.15 M saline on day zero. On day one, the mice receive the test compound in 0.5 mL of the chosen medium (usually water). Six mice were used for each test dose, with six doses normally being run. Normal controls (six mice) receive tumor on day zero and 0.5 mL of the test medium on day one. Positive controls (six mice) receive tumor on day zero and 8 mg/kg cisplatin in 0.5 mL of 0.15 M saline on day one. All compound doses are adjusted for the actual average weight of the mice involved. Testing is terminated at three times the normal control mean life span. The percent increase in lifespan (ILS) is calculated as follows: %ILS = [(mean life span (test)/mean life span(control)-I]x100 A 25% ILS or greater indicates activity. The maximum possible ILS is 200%. The positive control must have an ILS of S 25% for the test to be considered valid.
The tumor line is maintained by transfer of 5 x 10^4- cells in 0.1 mL saline every seven days. DBA/2 (18-22 g) mice are employed for tumor transfers

[1] abbreviates: dose 40.00 mg/kg on day 1, vehicle water.
[2] abbreviates: dose 80.00 mg/kg on day 1, vehicle water.
[3] abbreviates: dose 160.00 mg/kg on day 1, vehicle water.
[4] abbreviates: dose 5.00 mg/kg on day 1, vehicle water.
Setting [5] is: dose 10.00 mg/kg on day 1, vehicle water.
The mark [6] stands for this setting: dose 20.00 mg/kg on day 1, vehicle water.
[7] abbreviates: dose 320.00 mg/kg on day 1, vehicle water.
[8] abbreviates: dose 5.00 mg/kg on day 1, vehicle water, pH7.
[9] abbreviates: dose 10.00 mg/kg on day 1, vehicle water, pH7.
Where [10] appears, read: dose 20.00 mg/kg on day 1, vehicle water, pH7.
The mark [11] stands for this setting: dose 40.00 mg/kg on day 1, vehicle water, pH7.
Where [12] appears, read: dose 80.00 mg/kg on day 1, vehicle water, pH7.
Where [13] appears, read: dose 160.00 mg/kg on day 1, vehicle water, pH7.

Take `NC1CCCCC1N.O=C1[O][Pt][O]P(=O)([O-])C1c1ccccc1.[Na+]` (mixture of isomers) [Ex 6, Na[Pt(trans-R,R-dach)(2-phosphonophenytacetate)]]: the “%ILS” value worked out at 24% with Sarcoma 180 ascites (setting [1]); 88% in the assay with Sarcoma 180 ascites (setting [2]); 102% in the assay with Sarcoma 180 ascites (setting [3]); 2% with L1210 leukemia (setting [4]); 6% with L1210 leukemia (setting [5]); 26% in the assay on L1210 leukemia (setting [6]). For the same compound, the “%ILS” value in the assay on L1210 leukemia (setting [1]) was determined as 47%; in the assay with L1210 leukemia (setting [2]), 53%; with L1210 leukemia (setting [3]) it was 76%. Moreover, the Surv. in the assay on Sarcoma 180 ascites (setting [1]) is reported as 0/ 6; with Sarcoma 180 ascites (setting [2]) it was 2/ 6; with Sarcoma 180 ascites (setting [3]) it was 5/ 6; with L1210 leukemia (setting [4]), 0/ 6; in the assay with L1210 leukemia (setting [5]), 0/ 6; in the assay with L1210 leukemia (setting [6]), 0/ 6. Moreover, the Surv. in the assay with L1210 leukemia (setting [1]), in the assay with L1210 leukemia (setting [2]) and with L1210 leukemia (setting [3]) was 0/ 6 in each case.
As to `CC(N)CN.CCC1C(=O)[O][Pt][O]P1(=O)[O-].[Na+]` (mixture of isomers) [Ex 8, Na[Pt(pn)(2-phosphonobutyrate)]], the “%ILS” value in the assay on Sarcoma 180 ascites (setting [4]) is on record as 4%; with Sarcoma 180 ascites (setting [5]), 19%; in the assay on Sarcoma 180 ascites (setting [6]), 4%; in the assay with Sarcoma 180 ascites (setting [1]), 46%; in the assay on Sarcoma 180 ascites (setting [2]), 38%; in the assay with Sarcoma 180 ascites (setting [3]) it was 95%. Also, the “%ILS” value with L1210 leukemia (setting [5]) is -6%; with L1210 leukemia (setting [6]), -9%; in the assay on L1210 leukemia (setting [1]), 0%; in the assay with L1210 leukemia (setting [2]), -2%; in the assay with L1210 leukemia (setting [3]) it was 16%; in the assay on L1210 leukemia (setting [7]), -44%. Also, the Surv. with Sarcoma 180 ascites (setting [4]) is on record as 0/ 6; in the assay with Sarcoma 180 ascites (setting [5]), 0/ 6; in the assay on Sarcoma 180 ascites (setting [6]), 0/ 6; in the assay with Sarcoma 180 ascites (setting [1]) it was 0/ 6; in the assay on Sarcoma 180 ascites (setting [2]), 0/ 6; in the assay with Sarcoma 180 ascites (setting [3]), 4/ 6. Besides, the Surv. with L1210 leukemia (setting [5]), in the assay on L1210 leukemia (setting [6]), with L1210 leukemia (setting [1]), with L1210 leukemia (setting [2]), with L1210 leukemia (setting [3]) and in the assay with L1210 leukemia (setting [7]) was 0/ 6 in each case.
`CC(N)CN.O=C1CP(=O)(O)[O][Pt][O]1` (racemic) [Ex 10, H[Pt(pn)(phasphonoacetate)]]: the “%ILS” value in the assay on Sarcoma 180 ascites (setting [6]) is 77%; in the assay on Sarcoma 180 ascites (setting [1]), 9%; with Sarcoma 180 ascites (setting [2]) it was -71%; in the assay with Sarcoma 180 ascites (setting [3]), -78%; in the assay on Sarcoma 180 ascites (setting [7]), -79%; in the assay with L1210 leukemia (setting [4]), -5%. In addition, the “%ILS” value is recorded as 2% in the assay with L1210 leukemia (setting [5]); -13% in the assay with L1210 leukemia (setting [6]); -13% with L1210 leukemia (setting [1]); -34% in the assay on L1210 leukemia (setting [2]); -52% in the assay on L1210 leukemia (setting [3]). Also, the Surv. is listed as 3/ 6 in the assay on Sarcoma 180 ascites (setting [6]); 1/ 6 with Sarcoma 180 ascites (setting [1]); 0/ 6 with Sarcoma 180 ascites (setting [2]); 0/ 6 with Sarcoma 180 ascites (setting [3]); 0/ 6 with Sarcoma 180 ascites (setting [7]); 0/ 6 in the assay with L1210 leukemia (setting [4]). For the same compound, the Surv. in the assay with L1210 leukemia (setting [5]), with L1210 leukemia (setting [6]), with L1210 leukemia (setting [1]), in the assay on L1210 leukemia (setting [2]) and in the assay on L1210 leukemia (setting [3]) was 0/ 6 throughout.
For the compound `CCC1C(=O)[O][Pt][O]P1(=O)[O-].N.N.[Na+]` (racemic) [Ex 14, Na[cis-Pt(NH3)2(2-phosphonobutyrate)]], the “%ILS” value in the assay on L1210 leukemia (setting [5]) is -10%; in the assay with L1210 leukemia (setting [6]), -8%; with L1210 leukemia (setting [1]), -15%; in the assay with L1210 leukemia (setting [2]) it was -5%; with L1210 leukemia (setting [3]) it was -67%; in the assay with L1210 leukemia (setting [7]), -80%. In addition, the Surv. in the assay with L1210 leukemia (setting [5]), with L1210 leukemia (setting [6]), in the assay with L1210 leukemia (setting [1]), in the assay on L1210 leukemia (setting [2]), with L1210 leukemia (setting [3]) and in the assay on L1210 leukemia (setting [7]) was 0/ 6 throughout.
For the compound `CCC(C)(C(=O)[O-])P(=O)([O-])[O-].N[C@@H]1CCCC[C@H]1N.[Na+].[Pt+2]` (relative stereo) [Ex 22, Na[Pt(trans-R,R-dach)(2-methyl-2-phosphonobutyrate)]], the “%ILS” value is 28% with Sarcoma 180 ascites (setting [5]); 20% in the assay on Sarcoma 180 ascites (setting [6]); 82% in the assay with Sarcoma 180 ascites (setting [1]); 100% in the assay with Sarcoma 180 ascites (setting [2]); 86% in the assay with Sarcoma 180 ascites (setting [3]); -78% with Sarcoma 180 ascites (setting [7]). Moreover, the “%ILS” value in the assay on L1210 leukemia (setting [5]) was 45%; in the assay on L1210 leukemia (setting [6]) it was 35%; in the assay on L1210 leukemia (setting [1]), 70%; in the assay with L1210 leukemia (setting [2]) it was 94%; in the assay on L1210 leukemia (setting [3]), 114%; in the assay on L1210 leukemia (setting [7]), -39%. Besides, the Surv. with Sarcoma 180 ascites (setting [5]) is listed as 1/ 6; in the assay with Sarcoma 180 ascites (setting [6]), 0/ 6; in the assay on Sarcoma 180 ascites (setting [1]), 4/ 6; with Sarcoma 180 ascites (setting [2]), 6/ 6; with Sarcoma 180 ascites (setting [3]), 2/ 6; in the assay with Sarcoma 180 ascites (setting [7]), 0/ 6. The Surv. with L1210 leukemia (setting [5]) was 0/ 6; in the assay on L1210 leukemia (setting [6]), 0/ 6; with L1210 leukemia (setting [1]), 1/ 6; in the assay with L1210 leukemia (setting [2]), 1/ 6; with L1210 leukemia (setting [3]), 3/ 6; in the assay on L1210 leukemia (setting [7]), 0/ 6.
Turning to `NCCN.O=C1CP(=O)(O)[O][Pt][O]1` [Ex 16, H[Pt(en)(phosphonoacetate)]], the “%ILS” value in the assay on Sarcoma 180 ascites (setting [4]) is recorded as -2%; in the assay with Sarcoma 180 ascites (setting [8]), -3%; in the assay with Sarcoma 180 ascites (setting [5]), 3%; in the assay on Sarcoma 180 ascites (setting [9]), 2%; with Sarcoma 180 ascites (setting [6]), 29%; with Sarcoma 180 ascites (setting [10]), 14%. In addition, the “%ILS” value in the assay on Sarcoma 180 ascites (setting [1]) is 64%; in the assay on Sarcoma 180 ascites (setting [11]) it was 72%; in the assay on Sarcoma 180 ascites (setting [2]), 84%; with Sarcoma 180 ascites (setting [12]) it was 93%; in the assay on Sarcoma 180 ascites (setting [3]), 85%; in the assay on Sarcoma 180 ascites (setting [13]) it was -32%. Also, the Surv. in the assay on Sarcoma 180 ascites (setting [8]) was 0/ 6; in the assay on Sarcoma 180 ascites (setting [4]), 0/ 6; with Sarcoma 180 ascites (setting [9]), 0/ 6; in the assay with Sarcoma 180 ascites (setting [5]), 0/ 6; in the assay with Sarcoma 180 ascites (setting [10]), 0/ 6; with Sarcoma 180 ascites (setting [6]), 1/ 6. Besides, the Surv. was 2/ 6 in the assay with Sarcoma 180 ascites (setting [11]); 3/ 6 with Sarcoma 180 ascites (setting [1]); 4/ 6 with Sarcoma 180 ascites (setting [12]); 4/ 6 in the assay on Sarcoma 180 ascites (setting [2]); 1/ 6 in the assay with Sarcoma 180 ascites (setting [13]); 3/ 6 with Sarcoma 180 ascites (setting [3]).
`N.N.O=C1CP(=O)([O-])[O][Pt][O]1.[Na+]` [Ex 21, Na(cis-Pt(NH3)2(phosphonoacetate)]]: the “%ILS” value is recorded as -10% with L1210 leukemia (setting [5]); -5% in the assay with L1210 leukemia (setting [6]); 13% with L1210 leukemia (setting [1]); 12% in the assay with L1210 leukemia (setting [2]); 10% in the assay on L1210 leukemia (setting [3]); -80% in the assay on L1210 leukemia (setting [7]). The Surv. with L1210 leukemia (setting [5]), in the assay with L1210 leukemia (setting [6]), with L1210 leukemia (setting [1]), with L1210 leukemia (setting [2]), with L1210 leukemia (setting [3]) and in the assay with L1210 leukemia (setting [7]) was 0/ 6 in each case.
